Source: publication PMC3199943, “Screening the MayBridge Rule of 3 Fragment Library for Compounds That Interact with the Trypanosoma brucei myo-Inositol-3-Phosphate Synthase and/or Show Trypanocidal Activity” (Molecular Biology International, 2011)
Read-outs that look alike come from different tables or passages of the source.

Experiments:
[1] = molecular target: T1, TbINO1 (Trypanosoma brucei brucei, UniProt Q5QQ46); experiment: biochemical; assay type: binding
T1 sequence (Q5QQ46 1-528): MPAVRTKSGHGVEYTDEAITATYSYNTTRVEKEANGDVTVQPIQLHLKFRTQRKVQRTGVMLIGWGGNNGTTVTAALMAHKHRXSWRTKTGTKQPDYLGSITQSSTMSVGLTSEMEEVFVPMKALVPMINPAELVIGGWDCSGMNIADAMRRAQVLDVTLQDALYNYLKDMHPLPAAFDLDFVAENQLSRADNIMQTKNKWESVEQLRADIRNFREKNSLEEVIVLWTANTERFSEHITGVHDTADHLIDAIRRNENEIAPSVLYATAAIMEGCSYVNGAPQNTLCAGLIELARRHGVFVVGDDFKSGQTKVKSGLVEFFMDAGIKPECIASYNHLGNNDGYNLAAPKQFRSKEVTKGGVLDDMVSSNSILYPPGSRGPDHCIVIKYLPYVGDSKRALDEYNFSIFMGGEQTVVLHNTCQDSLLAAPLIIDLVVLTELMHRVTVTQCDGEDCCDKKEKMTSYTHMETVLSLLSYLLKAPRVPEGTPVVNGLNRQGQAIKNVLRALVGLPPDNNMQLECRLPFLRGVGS

[2] = test system: HeLa cells; experiment: cells; settings: for HeLa Cells Alamar Blue: Supplementary Table 1; for viability at 500 µM / CC50: Homo sapiens, HeLa; for viability at 500 µM: 65 h; for CC50: read-out: HeLa ED50
In short: (§1)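 Alamar Blue read-out after a 5 h dye incubation that followed ~65 h compound exposure. Cells: HeLa or A549, 2 × 10^4/well, DMEM + 10% FCS + 2 mM L-Glutamine.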

[3] = test system: A549 cells; experiment: Cytotoxicity against A549 cells, Alamar Blue; assay type: cell-based; settings: Supplementary Table 1, compound 0.5 mM, percentage of controls (n=1); for viability at 500 µM: Homo sapiens, A549, 65 h
In short: as §1

[4] = Supplementary Table 1, compound 1mM, mean ± SD from Boltzman curve fitting
[5] = compound 0.5 mM, percentage of controls, mean ± SD (n=3) or SE (n=2)
[6] = Supplementary Table 1, compound 1mM, mean ± SD from Boltzman curve fitting, read-out: Tb Ino1 Tm Shift [˚C]
[7] = read-out: HeLa Cells Alamar Blue, Supplementary Table 1, compound 0.5 mM, percentage of controls, mean ± SD (n=3) or SE (n=2)
[8] = read-out: HeLa Cells Alamar Blue
[9] = read-out: HeLa Cells Alamar Blue (% survival)
[10] = read-out: Tb Ino1 Tm Shift [˚C]

Row | SMILES | viability at 500 µM [3] | viability at 500 µM [2, 8] | ΔTm at 1000 µM [1, 10] | also measured
1 | CN(C)C1(CN)CCSC1 (stereo not drawn) [compound 268, 3‐(aminomethyl)‐N,N‐dimethyltetrahydro‐3‐thiophenamine] | – | – | – | Tb Ino1 Tm Shift [˚C] [1, 4]: 0.32 ± 0.07 °C; HeLa Cells Alamar Blue [2, 5]: 88.4 ± 17.9 percentage of controls; A549 Cells Alamar Blue [3]: 87.3 percentage of controls
2 | O=C(O)c1ccc2cc[nH]c2c1 [compound 271, 1H‐indole‐6‐carboxylic acid] | 75.6% | – | – | ΔTm at 1000 µM [1, 6]: 0.06 ± 0.08 °C; viability at 500 µM [2, 7]: 111 ± 16.2%
3 | O=C1CC(c2ccccc2)=NO1 [compound 272, 3-phenyl-4,5-dihydroisoxazol-5-one] | 61.5% | 89.4 ± 3.9% | – | ΔTm at 1000 µM ([1]; read-out: TbIno1 Tm shift [°C]): 3.56 ± 0.06 °C; viability at 500 µM [2, 9]: 89.4 ± 3.9%
4 | O=C(O)c1c[nH]c2ccccc12 [compound 273, 1H‐indole‐3‐carboxylic acid] | 61.8% | 85.4 ± 12.2% | 0.01 ± 0.05 °C | –
5 | Fc1ccc(-n2cccc2)cc1 [compound 276, 1‐(4‐fluorophenyl)‐1H‐pyrrole] | 70.2% | 104 ± 16.6% | 0.75 ± 0.08 °C | –
6 | OCCc1c[nH]c2ccccc12 [compound 277, 2‐(1H‐indol‐3‐yl)ethan‐1‐ol] | 59.9% | 66.3 ± 1.7% | 1.12 ± 0.06 °C | –
7 | ON=C1CCCc2ccccc21 [compound 279, 1,2,3,4‐tetrahydronaphthalen‐1‐one oxime] | – | – | – | Tb Ino1 Tm Shift [˚C] [1, 4]: 0.76 ± 0.08 °C; HeLa Cells Alamar Blue [2, 5]: 19.9 ± 19.7 percentage of controls; A549 Cells Alamar Blue [3]: 16.9 percentage of controls
8 | Nc1ccc2c(c1)CCCC2=O [compound 280, 6‐amino‐1,2,3,4‐tetrahydronaphthalen‐1‐one] | – | – | – | Tb Ino1 Tm Shift [˚C] [1, 4]: 0.82 ± 0.09 °C; HeLa Cells Alamar Blue [2, 5]: 40.5 ± 19.2 percentage of controls; A549 Cells Alamar Blue [3]: 87.3 percentage of controls
9 | Cn1c(CN)nc2ccccc21 [compound 281, (1‐methyl‐1H‐benzimidazol‐2‐yl)methylamine] | 53.8% | 47.6 ± 19.8% | 0.7 ± 0.04 °C | CC50 [2]: 659 ± 65 µM
10 | Cn1nc2ccccc2c1CO [compound 285, (2‐methyl‐2H‐indazol‐3‐yl)methanol] | 67.6% | 73.4 ± 10.6% | 0.29 ± 0.07 °C | –
11 | CCCc1ccc(C(C)=O)cc1 [compound 288, 1‐(4‐propylphenyl)ethan‐1‐one] | 90.6% | 72.2 ± 17.1% | 0.22 ± 0.08 °C | –
12 | O=C(O)C1Cc2ccccc2N1 (stereo not drawn) [compound 292, indoline-2-carboxylic acid] | 78.3% | 37.6 ± 25% | – | ΔTm at 1000 µM ([1]; read-out: TbIno1 Tm shift [°C]): 1.54 ± 0.11 °C; viability at 500 µM [2, 9]: 37.6 ± 2.5%
13 | OCc1cc2ccccc2s1 [compound 301, 1‐benzothiophen‐2‐ylmethanol] | 71% | 90.7 ± 4.5% | 0.01 ± 0.05 °C | –
14 | CC(=O)Nc1cc(C)ccc1O [compound 303, N1‐(2‐hydroxy‐5‐methylphenyl)acetamide] | – | – | – | Tb Ino1 Tm Shift [˚C] [1, 4]: 0.15 ± 0.07 °C; HeLa Cells Alamar Blue [2, 5]: 95.3 ± 9.8 percentage of controls; A549 Cells Alamar Blue [3]: 45 percentage of controls
15 | CNCc1ccc2c(c1)OCO2 [compound 305, N‐(1,3‐benzodioxol‐5‐ylmethyl)‐N‐methylamine] | – | – | – | Tb Ino1 Tm Shift [˚C] [1, 4]: 1.12 ± 0.05 °C; HeLa Cells Alamar Blue [2, 5]: 56.8 ± 29.4 percentage of controls; A549 Cells Alamar Blue [3]: 58.3 percentage of controls
16 | OCC1CNc2ccccc2O1 (stereo not drawn) [compound 307, 3,4‐dihydro‐2H‐1,4‐benzoxazin‐2‐ylmethanol] | – | – | – | Tb Ino1 Tm Shift [˚C] [1, 4]: 0.56 ± 0.06 °C; HeLa Cells Alamar Blue [2, 5]: 81 ± 17.2 percentage of controls; A549 Cells Alamar Blue [3]: 70.8 percentage of controls
17 | OCc1cc2cccnc2s1 [compound 311, thieno[2,3‐b]pyridin‐2‐ylmethanol] | 77.5% | 92 ± 11.8% | 0.8 ± 0.08 °C | –
18 | Nc1cc(-c2cccs2)[nH]n1 [compound 313, 5‐thien‐2‐yl‐1H‐pyrazol‐3‐amine] | 81.7% | 101 ± 18.9% | 0.69 ± 0.08 °C | –
19 | CN1N=C(C(F)(F)F)CC1=O [compound 315, 1‐methyl‐3‐(trifluoromethyl)‐4,5‐dihydro‐1H‐pyrazol‐5‐one] | – | – | – | Tb Ino1 Tm Shift [˚C] [1, 4]: 0.09 ± 0.08 °C; HeLa Cells Alamar Blue [2, 5]: 109.2 ± 4.4 percentage of controls; A549 Cells Alamar Blue [3]: 88.3 percentage of controls

Row | SMILES | viability at 500 µM [3] | viability at 500 µM [2, 8] | ΔTm at 1000 µM [1, 10] | also measured
20 | O=C(O)CCc1ccccc1O [compound 323, 3‐(2‐hydroxyphenyl)propanoic acid] | 110% | 113 ± 2.8% | 1.23 ± 0.07 °C | –
21 | N#Cc1scc2c1OCCO2 [compound 327, 2,3‐dihydrothieno[3,4‐b][1,4]dioxine‐5‐carbonitrile] | – | – | – | Tb Ino1 Tm Shift [˚C] [1, 4]: 0.12 ± 0.06 °C; HeLa Cells Alamar Blue [2, 5]: 115.5 ± 14.4 percentage of controls; A549 Cells Alamar Blue [3]: 121.1 percentage of controls
22 | O=C(O)c1cc2sccc2[nH]1 [compound 328, 4H-thieno[3,2-b]pyrrole-5-carboxylic acid] | 136% | – | – | ΔTm at 1000 µM ([1]; read-out: TbIno1 Tm shift [°C]): 2.29 ± 0.1 °C; viability at 500 µM ([2]; read-out: HeLa Cells Alamar Blue (% survival), compound 0.5 mM, percentage of controls): 106 ± 6.9%; viability at 500 µM [2, 7]: 106 ± 6.9%
23 | COc1ccc(OC)c(CN)c1 [compound 329, 2,5‐dimethoxybenzylamine] | 156% | 26 ± 9% | – | ΔTm at 1000 µM [1, 6]: 0.97 ± 0.05 °C
24 | CCOC(=O)c1[nH]c(C)cc1C [compound 330, ethyl 3,5‐dimethyl‐1H‐pyrrole‐2‐carboxylate] | 156% | 122 ± 12.3% | 0.61 ± 0.06 °C | –
25 | Cn1c(CO)cc2sccc21 [compound 331, (4-methyl-4H-thieno[3,2-b]pyrrol-5-yl)methanol] | 121% | 93.6 ± 14.9% | – | ΔTm at 1000 µM ([1]; read-out: TbIno1 Tm shift [°C]): 1.54 ± 0.07 °C; viability at 500 µM [2, 9]: 93.6 ± 14.9%; CC50 [2]: 169 ± 10 µM
26 | OC1CCC(C(F)(F)F)CC1 (stereo not drawn) [compound 333, 4‐(trifluoromethyl)cyclohexan‐1‐ol] | 114% | 110 ± 4.4% | 0.47 ± 0.04 °C | –
27 | N#Cc1cccc(-n2ccnc2)c1 [compound 339, 3‐(1H‐imidazol‐1‐yl)benzonitrile] | 135% | 89.8 ± 5.8% | 0.39 ± 0.06 °C | –
28 | N#Cc1ccccc1-n1cccn1 [compound 340, 2‐(1H‐pyrazol‐1‐yl)benzonitrile] | 134% | 104 ± 16.5% | 0.18 ± 0.06 °C | –
29 | Cl.c1ccc2c(c1)CCNC2 [compound 343, 1,2,3,4‐tetrahydroisoquinoline hydrochloride] | – | – | – | Tb Ino1 Tm Shift [˚C] [1, 4]: 0.37 ± 0.06 °C; HeLa Cells Alamar Blue [2, 5]: 83.5 ± 7.8 percentage of controls; A549 Cells Alamar Blue [3]: 86.3 percentage of controls
30 | CC1CCN(CC(C)(C)N)CC1 [compound 349, 2‐methyl‐1‐(4‐methylpiperidino)‐2‐propanamine] | – | – | – | Tb Ino1 Tm Shift [˚C] [1, 4]: 0.53 ± 0.06 °C; HeLa Cells Alamar Blue [2, 5]: 108.4 ± 7.2 percentage of controls; A549 Cells Alamar Blue [3]: 144.1 percentage of controls
31 | Cc1cc(Cl)ccc1C(=O)O [compound 350, 4‐chloro‐2‐methylbenzoic acid] | 160% | 108 ± 9.9% | 1.05 ± 0.07 °C | –
32 | Nc1cccc(-c2cncnc2)c1 [compound 353, 3‐pyrimidin‐5‐ylaniline] | 56.4% | 78.7 ± 10% | 0.44 ± 0.06 °C | –
33 | CCOC(=O)c1csc(C)n1 [compound 356, ethyl 2‐methyl‐1,3‐thiazole‐4‐carboxylate] | 79.8% | 106 ± 5.3% | 0.28 ± 0.08 °C | –
34 | O=C(O)Cc1cc(F)cc(F)c1 [compound 359, 2‐(3,5‐difluorophenyl)acetic acid] | 128% | 108 ± 13.6% | 0.13 ± 0.06 °C | –
35 | CC(=O)c1cc(F)cc(F)c1O [compound 360, 1‐(3,5‐difluoro‐2‐hydroxyphenyl)ethan‐1‐one] | – | – | – | Tb Ino1 Tm Shift [˚C] [1, 4]: 1.29 ± 0.05 °C; HeLa Cells Alamar Blue [2, 5]: 103.5 ± 10 percentage of controls; A549 Cells Alamar Blue [3]: 149.7 percentage of controls
36 | N#Cc1cccc(N2CCCC2)c1 [compound 362, 3‐pyrrolidin‐1‐ylbenzonitrile] | 63.3% | 97.4 ± 19.9% | 0.05 ± 0.07 °C | –
37 | O=C(O)c1ccnc2ccccc12 [compound 368, quinoline‐4‐carboxylic acid] | 90.3% | 90.7 ± 7.5% | 0.33 ± 0.08 °C | –
38 | O=C(O)c1ccc2ccccc2n1 [compound 369, 2‐quinolinecarboxylic acid] | 152% | – | – | ΔTm at 1000 µM [1, 6]: 0.1 ± 0.67 °C; viability at 500 µM [2, 7]: 81.3 ± 14.1%
